In patent US9566334B2, “Combinations of a PI3K/AKT inhibitor compound with an HER3/EGFR inhibitor compound and use thereof in the treatment of a hyperproliferative disorder” (THE GENERAL HOSPITAL CORPORATION, priority 2012, dated 2017):
Entries after “also recorded” stand apart in the source; their conditions may differ.

Tests used:
TNBC cell lines = experiment: Cell viability by CellTiter-Glo and Crystal Violet; type: cell-based; conditions: across all TNBC cell lines; read-out: IC50s, inhibition of cell viability
Description: (§1) Several TNBC cell lines were treated with MEHD7945A, a dual-action antibody that targets both EGFR and HER3, AKT inhibitor GDC-0068, and pan-PI3K inhibitor GDC -0941. Cell viability was measured by CellTiter-Glo and Crystal Violet. Both cell line- and patient -derived xenograft models of TNBC were treated with MEHD7945A, GDC-0068, GDC-0941, or the combination of MEHD7945A with either GDC-0068 or GDC-0941. Tumor size and histology were examined. Protein expression was measured by Western blot, Mass Spectometry, CEER and immunohistochemistry.
(§2) For proliferation, 5×10^5 cells were seeded in 96-well plates and treated with the indicated concentrations of GDC-0068, GDC-0941, and/or MEHD7945A. After 5 days, cells were fixed and stained with Crystal Violet. Cell proliferation was also analyzed with CellTiter-Glo Luminescent Cell Viability Assay (Promega) as described by the manufacturer. For heregulin (HRG, Peprotech) and epidermal growth factor (EGF, Peprotech)-induced proliferation, 5×10^5 cells were treated with GDC-0068, GDC-0941, and/or MEHD7945A in the presence of 4 ng/ml of ligands for 5 days and then stained with Crystal Violet.

[1] = system: HCC70 and MDA-MB-468 cells; experiment: Five days proliferation analysis (Crystal Violet / CellTiter-Glo); type: cell-based; conditions: 5 days; MEHD7945A 10 nM, GDC-0068 and GDC-0941 1 uM
Description: Whether the combination of MEHD7945A with GDC-0068 or GDC-0941 would result in enhanced antiproliferative activity was tested in both HCC70 and MDA-MB-468 cells.
as §2

[2] = system: MDA-MB-468- and HCC70-derived xenografts; experiment: Cell line-derived xenograft tumor growth; type: in vivo, mice; conditions: MDA-MB-468 and HCC70 xenografts; p less than 0.01 combination vs monotherapy
Description: To expand these findings in vivo, the efficacy of MEHD7945A was tested in combination with either the Akt or PI3K inhibitor in both MDA-MB-468- and HCC70-derived xenografts.
(§3) For cell line-derived xenograft studies, mice were injected subcutaneously with 1×10^7 HCC70 or MDA-MB-468 suspended in 150 μL culture media/Matrigel (BD Biosciences) in a 4:1 ratio. One μmol/L of 17β-estradiol was supplemented in the mouse drinking water as described (Garcia-Garcia et al., Clinical cancer research: an official journal of the American Association for Cancer Research 18, 2603 (2012)).
(§4) Once tumors reached an average volume of about 150-250 mm^3, mice were randomized into treatment arms, with n=7-11 tumors/group. GDC-0068 [40 mg/kg] or GDC-0941 [75 mg/kg] were dissolved in 0.5% methylcellulose and 0.2% Tween-80 (MCT) solution and administered once daily via oral gavage. […] Tumors were measured by digital caliper over the entire treatment period. Tumor volume was determined using the formula: (length×width^2)×(π/6). Tumor volumes are plotted as means±SEM.

EGFR and HER3 = experiment: CEER analysis of active and total EGFR and HER3 in xenograft tumors; type: in vivo, mice; conditions: for active and total levels of HER3 and EGFR (CEER): TNBC PDX, tumors harvested 2 h after the last drug administration
Description: The levels of EGFR and HER3 expression/activation in HCC70 tumors collected at the end of the experiments (day 39) was investigated. […] Frozen tissue was analyzed by Cooperative, Enhanced, Enzyme Immunoreactive (CEER), a platform that utilizes reverse-phase detection of nanogram quantities of protein.
The levels of pathway protein expression and their activation in xenografts were determined by CEER. (Kim et al., ASCO Annual Meeting abstract P2-06-13, (2010)) CEER utilizes the formation of unique immuno-complexes between capture antibodies printed on a nitrocellulose microarray surface, the target molecule in cell lysate reacted with the slide, and two independent detector-antibodies. One of the detector-antibody is conjugated to glucose oxidase, and the other is conjugated to horseradish peroxidase. Target detection (expressed as computational unit, CU) requires the presence of both detector-antibodies and the enzyme channeling event between glucose oxidase and horseradish peroxidase will not occur unless both antibodies are in close proximity.

[3] = system: MDA-MB-468, HCC70 and patient-derived xenograft; experiment: In vivo activity in three different models of TNBC; parameters: species or system mice; conditions: for tumor growth: three TNBC models, MEHD7945A 10 mg/kg i.p. twice weekly, GDC-0068 40 mg/kg, GDC-0941 75 mg/kg oral once daily
Description: as §1
To test the activity of these compounds in vivo, three different models of TNBC were used: two cell line (MDA-MB-468 and HCC70)-based and a patient-derived xenograft.
All mouse studies were conducted through institutional Animal Care and Use Committee (IACUC) approved animal protocols in accordance with institutional guidelines. Six-week-old female athymic nude mice were purchased from Charles River Laboratories and housed in air-filtered laminar flow cabinets with a 12-hour light cycle and food and water ad libitum.
as §3
(§5) For patient-derived xenograft (PDX) studies, tumors were subcutaneously implanted in 6-week old female athymic nude mice. Upon xenograft growth, tumor tissue was reimplanted into recipient mice, which were randomized upon implant growth. For the collection of circulating tumor cells (CTCs), tumors were implanted into the mammary pad of athymic nude mice.
as §4

[4] = system: EGFR, HER3 and downstream signaling pathways; experiment: Western blot of EGFR, HER3 and downstream signaling in cells; type: cell-based; conditions: for expression of HER3: HCC70 and MDA-MB-468 cells; for expression of HER3 / activation of EGFR and HER3: 1 uM; for activation of EGFR and HER3: HCC70 cells
Description: HCC70 and MDA-MB-468 TNBC cell lines, characterized by elevated levels of EGFR and loss of PTEN expression, were treated with GDC-0068, GDC-0941, MEHD7945A, and the combinations of these inhibitors.
Cells were washed with ice-cold phosphate buffered saline (PBS) and scraped into ice-cold RIPA lysis buffer (Cell Signaling) supplemented with phosphatase inhibitor cocktails (Complete Mini, and PhosphoStop (Roche)). Lysates were cleared by centrifugation at 13,000 rpm for 10 minutes at 4° C., supernatants removed and assayed for protein concentration using the Pierce BCA Protein Assay Kit (Thermo Scientific). Thirty-five micrograms of total lysate was resolved on NuPAGE 4-12% Bis-Tris gels (Life Technologies) and electrophoretically transferred to Immobilon transfer membranes (Millipore). Membranes were blocked for 1 hour in 5% nonfat dry milk in TBS-Tween and then hybridized using the following primary antibodies in 5% bovine serum albumin (BSA) TBS-Tween: phospho-Akt (Ser473), phospho-Akt (Thr308), Akt, phospho-S6 (Ser(240/4), phospho-S6 (Ser235/6), S6, phospho-PRAS40 (Thr246), PRAS40, phospho-Erk (Thr202/Tyr204), Erk, phospho-EGFR (Tyr1068), EGFR, phospho-HER3 (Tyr1289), HER3 (1:500-1:1000, Cell Signaling). Beta-actin was used as a loading control (1:5000, Sigma), also in 5% BSA TBS-Tween. Mouse and rabbit horseradish peroxidase (HRP)-conjugated secondary antibodies (1:50,000, Amersham Biosciences) were diluted in 2% nonfat dry milk in TBS-Tween. Protein—antibody complexes were detected by chemiluminescence with SuperSignal West FemtoChemiluminescent Substrate (Thermo Scientific) and images were captured with a G-BOX camera system.

[5] = system: patient-derived xenografts (PDX) of TNBC; experiment: Patient-derived xenograft tumor growth; type: in vivo, mice; conditions: MEHD7945A 10 mg/Kg twice weekly, GDC-0941 75 mg/Kg daily, GDC-0068 40 mg/kg daily
Description: The activity of the same treatments in patient-derived xenografts (PDX) of TNBC was then tested.
as §5, §4

HCC70 cells = experiment: Heregulin- and EGF-induced proliferation; type: cell-based
Description: as §2, with “MEH[…].” for “MEHD7945A.”, “MEH[…]” for “MEHD7945A”

[6] = HCC70 tumors collected at day 39
[7] = cells stimulated with either EGF or Heregulin

Row | Compound | IC50 (TNBC cell lines) | inhibition of cell proliferation/viability [1] | tumor growth inhibition [2] | EGFR and HER3 expression and phosphorylation (CEER) (EGFR and HER3; [6]) | total EGFR receptor levels (CEER) (EGFR and HER3; [6]) | active and total levels of HER3 and EGFR (CEER) (EGFR and HER3) | tumor growth [3] | expression of HER3 ([4]; 24 hours) | activation of EGFR and HER3 ([4]; 24 hours) | tumor growth [5] | EGFR phosphorylation (CEER) (EGFR and HER3; HCC70 xenografts) | HER3 activation (CEER) (EGFR and HER3; HCC70 xenografts) | EGFR and HER3 phosphorylation consequent to PI3K inhibition in treated tumors ([3]; analysis of treated tumors) | inhibition of the PI3K and ERK downstream pathways ([4]; addition of MEHD7945A 10 nM to GDC-0068 or GDC-0941, both cell lines) | induction of EGFR and HER3 phosphorylation by GDC-0068 or GDC-0941 ([4]; addition of MEHD7945A 10 nM, both cell lines, 24 hours) | HER3/EGFR receptor phosphorylation [4, 7] | effect on antiproliferative activity mediated by PI3K/Akt inhibition (HCC70 cells; HCC70 cells stimulated with EGF, antibodies 10 nM, GDC-0068 and GDC-0941 1 uM, 5 days) | cooperation with the antiproliferative activity of GDC-0068 and GDC-0941 (HCC70 cells; HCC70 cells stimulated with heregulin (HRG), antibodies 10 nM, 5 days) | effect on antiproliferative activity of the PI3K inhibitors (HCC70 cells; [7])
1 | CC(C)NC[C@@H](C(=O)N1CCN(c2ncnc3c2[C@H](C)C[C@H]3O)CC1)c1ccc(Cl)cc1 [GDC-0068] | ≥ 0.17 µM | varying sensitivity | responded only modestly | overall increase of both EGFR and HER3 expression and phosphorylation | no changes in the total receptor levels were observed | increased; also recorded: lower ability to induce EGFR and HER3 phosphorylation | variable delay in tumor growth | increased expression of HER3 | activation of both EGFR and HER3 | superior antitumor activity compared with GDC-0941 |  |  |  |  |  |  |  |  | 
2 | CS(=O)(=O)N1CCN(Cc2cc3nc(-c4cccc5[nH]ncc45)nc(N4CCOCC4)c3s2)CC1 [GDC-0941, 4-(2-(1H-indazol-4-yl)-6-((4-(methylsulfonyl)piperazin-1-yl)methyl)thieno[3,2-d]pyrimidin-4-yl)morpholine] | ≥ 0.17 µM | varying sensitivity | responded only modestly | overall increase of both EGFR and HER3 expression and phosphorylation |  | increased | variable delay in tumor growth | increased expression of HER3 | activation of both EGFR and HER3 | delayed tumor growth |  |  |  |  |  |  |  |  | 
3 | MEHD7945A: dual-action antibody with two identical antigen binding domains, each of which specifically binds to both HER3 and EGFR |  | varying sensitivity | responded only modestly |  |  | prevented receptor phosphorylation | variable delay in tumor growth |  |  | delayed tumor growth | blocked EGFR phosphorylation | decreased HER3 activation | effectively prevented EGFR and HER3 phosphorylation | enhanced the inhibition of the PI3K and ERK downstream pathways | prevented the induction of EGFR and HER3 phosphorylation | prevented HER3/EGFR receptor phosphorylation | enhanced the antiproliferative activity mediated by PI3K/Akt inhibition | superior to cetuximab | improved the antiproliferative activity of the PI3K inhibitors
